Source: PMC7730863 (Journal of medicinal chemistry, 2020)

Target: EGFR-L858R/T790M (Homo sapiens, UniProt P00533, L858R/T790M)
Assay: radiolabeled 33P
Assay type: biochemical
Conditions: statement in text referring to Table 1

EGFR-L858R/T790M, sequence (P00533 25-1210 T790M/L858R): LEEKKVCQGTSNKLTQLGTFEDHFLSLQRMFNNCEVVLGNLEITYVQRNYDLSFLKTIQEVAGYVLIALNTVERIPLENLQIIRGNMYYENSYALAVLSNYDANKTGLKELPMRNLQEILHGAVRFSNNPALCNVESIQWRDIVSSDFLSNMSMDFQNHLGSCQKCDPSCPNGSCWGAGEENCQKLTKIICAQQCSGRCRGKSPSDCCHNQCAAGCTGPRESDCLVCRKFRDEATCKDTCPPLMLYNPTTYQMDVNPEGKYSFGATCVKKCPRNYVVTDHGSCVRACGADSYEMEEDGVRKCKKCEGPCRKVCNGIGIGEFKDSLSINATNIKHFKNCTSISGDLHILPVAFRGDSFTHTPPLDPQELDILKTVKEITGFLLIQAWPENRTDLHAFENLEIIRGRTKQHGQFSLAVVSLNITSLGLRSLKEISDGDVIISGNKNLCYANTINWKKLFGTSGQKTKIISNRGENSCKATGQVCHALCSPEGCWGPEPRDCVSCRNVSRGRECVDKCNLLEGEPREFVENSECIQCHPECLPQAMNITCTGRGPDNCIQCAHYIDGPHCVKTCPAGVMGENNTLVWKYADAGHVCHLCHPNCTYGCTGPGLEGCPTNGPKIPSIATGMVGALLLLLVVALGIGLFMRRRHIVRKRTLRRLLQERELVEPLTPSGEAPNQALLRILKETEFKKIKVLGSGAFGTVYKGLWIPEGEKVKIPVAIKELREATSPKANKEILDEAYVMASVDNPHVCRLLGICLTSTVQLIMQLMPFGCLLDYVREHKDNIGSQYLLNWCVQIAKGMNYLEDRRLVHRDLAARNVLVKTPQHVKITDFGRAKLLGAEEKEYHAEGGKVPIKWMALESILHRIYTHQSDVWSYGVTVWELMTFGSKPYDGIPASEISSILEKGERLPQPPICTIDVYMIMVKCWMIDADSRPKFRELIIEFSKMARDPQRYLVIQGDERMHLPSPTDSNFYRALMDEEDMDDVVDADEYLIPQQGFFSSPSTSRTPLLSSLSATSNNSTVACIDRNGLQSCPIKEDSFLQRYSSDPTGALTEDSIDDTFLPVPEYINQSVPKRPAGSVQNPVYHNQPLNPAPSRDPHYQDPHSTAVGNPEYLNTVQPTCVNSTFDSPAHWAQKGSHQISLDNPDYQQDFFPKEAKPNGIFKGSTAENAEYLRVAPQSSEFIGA

potency against EGFR(L858R/T790M), in words: low nanomolar potency
Structure (SMILES): C=CC(=O)Nc1ccc(OC)c(Nc2cc(-c3nc(SC)n(C)c3-c3ccc(F)cc3)ccn2)c1 [Compound 7, N-(3-((4-(5-(4-fluorophenyl)-1-methyl-2-(methylthio)-1H-imidazol-4-yl)pyridin-2-yl)amino)-4-methoxyphenyl)acrylamide]
